Measurements as given in publication PMC12595434, “Development of retinoid nuclear receptor pathway antagonists through targeting aldehyde dehydrogenase 1A3” (iScience, 2025).
Where “and” joins values, the source holds several entries; their conditions need not be identical. Equal values may be shown once.

Key:
COX1 = COX1 (Homo sapiens, UniProt P23219); experiment: Off-target profiling panel; format: biochemical; conditions: read-out: Inhibition by MBE1 at 10 μM (%)
Eta antagonist = Eta antagonist (Homo sapiens, UniProt P25101); experiment: Off-target profiling panel; format: cell-based; conditions: read-out: Inhibition by MBE1 at 10 μM (%)
Eta antagonist, sequence (P25101 21-427): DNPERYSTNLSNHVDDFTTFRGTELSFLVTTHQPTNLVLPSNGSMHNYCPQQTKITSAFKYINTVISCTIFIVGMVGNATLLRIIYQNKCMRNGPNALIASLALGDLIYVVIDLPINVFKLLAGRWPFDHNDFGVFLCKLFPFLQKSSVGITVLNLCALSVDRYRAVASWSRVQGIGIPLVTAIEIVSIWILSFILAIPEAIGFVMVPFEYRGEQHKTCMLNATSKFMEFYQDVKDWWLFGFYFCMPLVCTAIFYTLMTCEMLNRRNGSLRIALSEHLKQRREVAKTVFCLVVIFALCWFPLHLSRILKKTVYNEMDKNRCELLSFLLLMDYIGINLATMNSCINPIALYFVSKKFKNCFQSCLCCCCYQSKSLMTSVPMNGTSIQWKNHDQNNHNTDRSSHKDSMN

5HT1B = 5HT1B (Homo sapiens, UniProt P28222); experiment: Off-target profiling panel; format: binding; conditions: read-out: Inhibition by MBE1 at 10 μM (%)
5HT1B, sequence (P28222 whole entry): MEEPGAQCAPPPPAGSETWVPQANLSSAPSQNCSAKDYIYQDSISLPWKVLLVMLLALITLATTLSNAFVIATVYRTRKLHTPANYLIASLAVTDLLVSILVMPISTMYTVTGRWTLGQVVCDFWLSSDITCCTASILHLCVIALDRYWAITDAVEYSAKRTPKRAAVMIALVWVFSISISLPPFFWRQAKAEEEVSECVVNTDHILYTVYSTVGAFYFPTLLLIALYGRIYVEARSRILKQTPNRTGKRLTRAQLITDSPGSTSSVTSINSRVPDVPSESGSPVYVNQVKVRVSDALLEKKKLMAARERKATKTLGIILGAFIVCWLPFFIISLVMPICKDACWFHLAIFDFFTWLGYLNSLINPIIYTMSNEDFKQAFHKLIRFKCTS

PDE4D2 = PDE4D2 (Homo sapiens, UniProt Q08499); experiment: Off-target profiling panel; format: biochemical; conditions: read-out: Inhibition by MBE1 at 10 μM (%)
PDE4D2, sequence (Q08499 303-809 limits assumed): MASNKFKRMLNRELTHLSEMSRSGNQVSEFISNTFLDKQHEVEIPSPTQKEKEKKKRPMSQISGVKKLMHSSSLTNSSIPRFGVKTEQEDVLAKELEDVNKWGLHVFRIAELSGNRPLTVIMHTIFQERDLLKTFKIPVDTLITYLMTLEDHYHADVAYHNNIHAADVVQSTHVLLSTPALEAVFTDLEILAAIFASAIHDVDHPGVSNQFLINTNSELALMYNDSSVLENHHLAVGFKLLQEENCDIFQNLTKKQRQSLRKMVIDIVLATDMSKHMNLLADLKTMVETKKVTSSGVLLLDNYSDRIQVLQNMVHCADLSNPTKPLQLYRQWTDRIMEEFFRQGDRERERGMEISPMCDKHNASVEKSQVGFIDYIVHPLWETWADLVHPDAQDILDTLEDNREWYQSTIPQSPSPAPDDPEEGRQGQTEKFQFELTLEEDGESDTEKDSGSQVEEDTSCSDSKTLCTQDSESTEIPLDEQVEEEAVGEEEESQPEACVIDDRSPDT

MARCKSL1 = target: T1, MARCKSL1 (Homo sapiens, UniProt P49006); experiment: Thermal proteome profiling (TPP) in A375 cells; format: cell-based; conditions: MARCKSL1, 1 uM
T1 construct: Treated A375 cells were harvested from 10 × 15 cm plates; endogenous in cells; host or cells: A375 melanoma cells
T1 sequence (P49006 whole entry): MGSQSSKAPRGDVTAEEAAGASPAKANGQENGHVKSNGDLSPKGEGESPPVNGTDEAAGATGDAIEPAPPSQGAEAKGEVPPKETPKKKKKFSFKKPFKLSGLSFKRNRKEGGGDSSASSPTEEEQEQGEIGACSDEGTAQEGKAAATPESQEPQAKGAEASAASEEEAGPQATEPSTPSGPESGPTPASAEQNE

Ca2+-L = experiment: Off-target profiling panel; format: binding; conditions: 10 μM
Beta2 = Beta2 (Homo sapiens, UniProt P07550); experiment: Off-target profiling panel; format: binding; conditions: read-out: Inhibition by MBE1 at 10 μM (%)
Beta2, sequence (P07550 whole entry): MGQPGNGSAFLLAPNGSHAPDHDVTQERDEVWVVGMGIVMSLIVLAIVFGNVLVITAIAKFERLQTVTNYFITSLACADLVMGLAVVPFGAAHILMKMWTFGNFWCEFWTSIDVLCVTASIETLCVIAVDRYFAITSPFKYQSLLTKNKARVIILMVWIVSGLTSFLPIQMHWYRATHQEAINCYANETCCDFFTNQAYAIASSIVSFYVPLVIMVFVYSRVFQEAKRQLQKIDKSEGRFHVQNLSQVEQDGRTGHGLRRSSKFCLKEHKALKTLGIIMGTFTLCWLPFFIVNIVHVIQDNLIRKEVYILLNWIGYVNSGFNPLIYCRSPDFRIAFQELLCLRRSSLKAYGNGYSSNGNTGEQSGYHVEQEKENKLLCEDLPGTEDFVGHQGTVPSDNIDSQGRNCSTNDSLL

hNav1.5 = hNav1.5 (Homo sapiens, UniProt Q14524); experiment: Off-target profiling panel; format: cell-based; conditions: read-out: Inhibition by MBE1 at 10 μM (%)
5HT1a = 5HT1a (Homo sapiens, UniProt P08908); experiment: Off-target profiling panel; format: binding; conditions: read-out: Inhibition by MBE1 at 10 μM (%)
5HT2A = 5HT2A (Homo sapiens, UniProt P28223); experiment: Off-target profiling panel; format: binding; conditions: read-out: Inhibition by MBE1 at 10 μM (%)
5HT2A, sequence (P28223 whole entry): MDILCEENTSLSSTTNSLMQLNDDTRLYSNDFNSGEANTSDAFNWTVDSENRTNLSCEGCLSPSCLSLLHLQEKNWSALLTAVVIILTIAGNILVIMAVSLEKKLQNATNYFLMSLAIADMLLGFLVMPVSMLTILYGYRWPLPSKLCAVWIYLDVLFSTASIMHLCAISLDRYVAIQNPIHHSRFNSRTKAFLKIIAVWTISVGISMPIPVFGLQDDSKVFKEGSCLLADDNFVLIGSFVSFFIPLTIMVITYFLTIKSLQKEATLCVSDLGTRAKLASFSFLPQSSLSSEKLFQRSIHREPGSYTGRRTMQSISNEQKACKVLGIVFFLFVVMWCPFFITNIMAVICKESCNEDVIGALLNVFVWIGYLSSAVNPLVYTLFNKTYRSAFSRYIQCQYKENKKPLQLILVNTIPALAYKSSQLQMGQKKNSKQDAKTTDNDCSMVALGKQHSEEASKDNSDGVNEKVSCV

5HTT = 5HTT (Homo sapiens, UniProt P31645); experiment: Off-target profiling panel; format: binding; conditions: read-out: Inhibition by MBE1 at 10 μM (%)
op-kappa = op-kappa (Homo sapiens, UniProt P41145); experiment: Off-target profiling panel; format: binding; conditions: read-out: Inhibition by MBE1 at 10 μM (%)
op-kappa, sequence (P41145 whole entry): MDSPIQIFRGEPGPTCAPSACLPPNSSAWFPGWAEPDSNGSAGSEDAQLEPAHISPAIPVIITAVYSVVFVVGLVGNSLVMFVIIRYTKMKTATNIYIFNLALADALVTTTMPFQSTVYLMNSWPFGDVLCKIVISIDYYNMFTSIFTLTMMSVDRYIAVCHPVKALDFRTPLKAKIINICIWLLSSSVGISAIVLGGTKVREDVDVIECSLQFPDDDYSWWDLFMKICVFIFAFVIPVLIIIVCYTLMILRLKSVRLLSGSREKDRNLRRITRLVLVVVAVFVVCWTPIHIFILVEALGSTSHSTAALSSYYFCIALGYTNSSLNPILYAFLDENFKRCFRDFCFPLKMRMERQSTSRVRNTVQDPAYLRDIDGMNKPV

Alpha1A = Alpha1A (Homo sapiens, UniProt P35348); experiment: Off-target profiling panel; format: binding; conditions: read-out: Inhibition by MBE1 at 10 μM (%)
Alpha1A, sequence (P35348 whole entry): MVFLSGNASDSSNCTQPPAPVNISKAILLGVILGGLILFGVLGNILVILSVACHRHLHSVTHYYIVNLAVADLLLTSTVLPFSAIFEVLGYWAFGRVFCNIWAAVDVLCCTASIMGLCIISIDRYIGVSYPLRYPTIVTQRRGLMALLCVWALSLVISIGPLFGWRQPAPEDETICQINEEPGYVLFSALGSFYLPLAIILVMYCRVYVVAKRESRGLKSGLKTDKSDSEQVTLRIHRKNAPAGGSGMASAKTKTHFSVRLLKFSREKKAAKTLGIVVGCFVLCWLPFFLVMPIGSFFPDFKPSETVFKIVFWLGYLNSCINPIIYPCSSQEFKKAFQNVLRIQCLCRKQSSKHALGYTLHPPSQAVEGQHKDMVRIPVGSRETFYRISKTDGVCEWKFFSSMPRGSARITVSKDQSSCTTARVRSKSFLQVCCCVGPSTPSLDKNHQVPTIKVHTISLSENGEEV

Eta agonist = Eta agonist (Homo sapiens, UniProt P25101); experiment: Off-target profiling panel; format: cell-based; conditions: read-out: Inhibition by MBE1 at 10 μM (%)
Eta agonist, sequence (P25101 21-427): as the sequence (P25101 21-427) above

ALDH1A3 = target: T2, ALDH1A3 (Homo sapiens, UniProt P47895); experiment: Thermal proteome profiling (TPP) in A375 cells; format: cell-based; parameters: endogenous in cells; host or cells: A375 cells; conditions: 100 nM and 1 μM MBE1, A375 cells
T2 sequence (P47895 1-512): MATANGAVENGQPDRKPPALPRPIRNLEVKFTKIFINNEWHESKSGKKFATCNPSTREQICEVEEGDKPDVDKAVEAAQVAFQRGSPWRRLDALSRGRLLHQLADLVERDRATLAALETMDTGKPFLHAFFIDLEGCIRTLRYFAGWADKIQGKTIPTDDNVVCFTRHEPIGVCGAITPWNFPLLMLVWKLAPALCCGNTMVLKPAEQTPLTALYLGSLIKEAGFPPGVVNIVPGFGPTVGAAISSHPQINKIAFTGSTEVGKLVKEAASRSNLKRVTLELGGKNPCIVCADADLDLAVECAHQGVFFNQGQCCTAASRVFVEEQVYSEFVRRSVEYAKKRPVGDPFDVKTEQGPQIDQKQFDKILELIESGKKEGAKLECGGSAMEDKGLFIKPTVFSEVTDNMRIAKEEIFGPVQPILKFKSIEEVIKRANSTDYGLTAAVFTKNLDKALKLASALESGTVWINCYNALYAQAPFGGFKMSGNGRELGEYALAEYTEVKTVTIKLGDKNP

M2 = M2 (Homo sapiens, UniProt P08172); experiment: Off-target profiling panel; format: binding; conditions: read-out: Inhibition by MBE1 at 10 μM (%)
M2, sequence (P08172 whole entry): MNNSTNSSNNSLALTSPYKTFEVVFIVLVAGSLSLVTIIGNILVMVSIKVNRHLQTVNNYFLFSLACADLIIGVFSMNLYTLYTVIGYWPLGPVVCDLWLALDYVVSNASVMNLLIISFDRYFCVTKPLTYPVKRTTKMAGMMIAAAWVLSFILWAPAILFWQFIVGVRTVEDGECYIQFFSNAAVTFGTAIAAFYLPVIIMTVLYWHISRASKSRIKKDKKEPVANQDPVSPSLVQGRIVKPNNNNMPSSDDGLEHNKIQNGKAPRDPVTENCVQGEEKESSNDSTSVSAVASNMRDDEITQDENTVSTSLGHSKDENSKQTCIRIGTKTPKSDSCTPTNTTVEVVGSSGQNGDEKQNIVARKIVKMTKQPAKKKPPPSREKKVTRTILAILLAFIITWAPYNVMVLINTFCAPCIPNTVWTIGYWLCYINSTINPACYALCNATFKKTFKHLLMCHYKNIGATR

AsPC-1 cells = experiment: Metabolomic profiling of treated cell lines (raw metabolite counts); format: cell-based; conditions: AsPC-1:MBE, replicates
Excerpt: Supplement mmc8.xlsx, sheet "Supplement Table 7" | column: AsPC-1:MBE

mouse T cells = experiment: T cell proliferation (CFSE) co-culture with myeloid cells; format: cell-based; conditions: 1 μM MBE1 treatment of B16F10-ALDH1A3 cells
Procedure: Next, to simulate paracrine signaling from tumor cells, we collected conditioned media from isogenic B16F10 cells stably expressing either vector or ALDH1A3 and added the media to the myeloid cells prior to culturing with T cells.
Bone marrow derived monocytes were enriched using MACS isolation (#130-100-629) and >95% purity of monocytes was confirmed by staining with Ly6C-PE (Clone# HK1.4; Biolegend 128008). Monocytes were cultured in RPMI1640 at 1M/well in a 6-well plate. 20 ng/ml mGM-CSF (peprotech) and 20 ng/ml mIL-4 (peprotech) were used to differentiate monocytes to monocyte derived dendritic cells (MoDCs). 100 nM atRA or 0.1% DMSO was used to treat the cells. 3 days later, floating cells were collected and 20,000 of them were cocultured with 100,000 CD4^+ T cell labeled with CFSE (Thermo fisher scientific) at 1:5000. T cell proliferation was examined ∼72hrs after the coculture. When conditioned medium was used in differentiating MoDCs, conditioned medium was first collected from 500,000 B16-vector control cells vs. B16-mALDH1A3 cells with or without 1 μM MBE1 treatment cultured in 1.5 mL medium in a 6-well plate for ∼24hrs. Fresh RPMI1640 and conditioned medium were mixed 1:1 before applying to MoDC culture. In parallel, fresh RPMI1640 medium alone is used as a control. […]

M3 = M3 (Homo sapiens, UniProt P20309); experiment: Off-target profiling panel; format: binding; conditions: read-out: Inhibition by MBE1 at 10 μM (%)
M3, sequence (P20309 whole entry): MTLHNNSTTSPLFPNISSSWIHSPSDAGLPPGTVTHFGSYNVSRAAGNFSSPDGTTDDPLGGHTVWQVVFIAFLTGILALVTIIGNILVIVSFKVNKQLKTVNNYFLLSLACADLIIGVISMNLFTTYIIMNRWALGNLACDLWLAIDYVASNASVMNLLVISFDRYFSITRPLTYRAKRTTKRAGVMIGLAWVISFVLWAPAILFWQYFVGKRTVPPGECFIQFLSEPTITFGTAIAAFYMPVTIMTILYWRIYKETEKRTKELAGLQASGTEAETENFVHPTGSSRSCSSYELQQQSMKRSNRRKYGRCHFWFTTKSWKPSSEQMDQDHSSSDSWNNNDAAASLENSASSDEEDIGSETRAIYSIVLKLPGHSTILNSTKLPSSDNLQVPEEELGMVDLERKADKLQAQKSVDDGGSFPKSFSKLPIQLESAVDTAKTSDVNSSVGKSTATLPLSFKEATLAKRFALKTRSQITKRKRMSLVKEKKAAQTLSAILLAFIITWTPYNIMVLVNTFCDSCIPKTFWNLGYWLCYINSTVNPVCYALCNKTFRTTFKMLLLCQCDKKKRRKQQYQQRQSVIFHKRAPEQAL

ALDH1A3 mRNA = experiment: RT-qPCR of ALDH1A3 mRNA after treatment; format: cell-based, human; conditions: multiple cell lines

COX1, sequence (P23219 24-599): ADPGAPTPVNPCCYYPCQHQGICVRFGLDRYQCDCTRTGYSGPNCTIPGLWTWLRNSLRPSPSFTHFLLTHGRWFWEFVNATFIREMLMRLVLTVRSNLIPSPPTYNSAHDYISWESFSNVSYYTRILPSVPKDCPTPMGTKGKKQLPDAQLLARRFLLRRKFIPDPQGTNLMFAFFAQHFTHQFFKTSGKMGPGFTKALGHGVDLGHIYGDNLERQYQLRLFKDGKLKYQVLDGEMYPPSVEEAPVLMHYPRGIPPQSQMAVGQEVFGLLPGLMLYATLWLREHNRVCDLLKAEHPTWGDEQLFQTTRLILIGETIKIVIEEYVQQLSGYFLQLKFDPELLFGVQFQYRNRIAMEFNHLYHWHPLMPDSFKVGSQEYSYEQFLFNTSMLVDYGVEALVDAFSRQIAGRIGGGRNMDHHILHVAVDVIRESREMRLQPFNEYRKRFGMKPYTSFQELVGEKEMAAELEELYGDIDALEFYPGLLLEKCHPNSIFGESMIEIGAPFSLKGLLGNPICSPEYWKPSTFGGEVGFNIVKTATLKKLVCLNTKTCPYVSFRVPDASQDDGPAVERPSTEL

## CCc1cnccc1C(=O)Nc1cc2c(cc1F)NC(=O)CC2 [MBE1, 3-ethyl-N-(7-fluoro-2-oxo-3,4-dihydro-1H-quinolin-6-yl)pyridine-4-carboxamide]
COX1
  inhibition at 10 µM: -2.65%
Eta antagonist
  inhibition at 10 µM: 4.57%
5HT1B
  inhibition at 10 µM: 5.26%
PDE4D2
  inhibition at 10 µM: 11.8%
MARCKSL1
  1uM MBE1 Tm: 64
Ca2+-L
  Inhibition by MBE1 at 10 μM (%): −0.09%
Beta2
  inhibition at 10 µM: 3.23%
hNav1.5
  inhibition at 10 µM: -0.59%
5HT1a
  inhibition at 10 µM: 3.78%
5HT2A
  inhibition at 10 µM: -16.1%
5HTT
  inhibition at 10 µM: -24.2%
op-kappa
  inhibition at 10 µM: -12.6%
Alpha1A
  inhibition at 10 µM: -3.34%
Eta agonist
  inhibition at 10 µM: -0.16%
ALDH1A3
  thermal stabilization of ALDH1A3 in TPP (in words): stabilized
M2
  inhibition at 10 µM: -6.51%
AsPC-1 cells
  Raw counts of 2-Hydroxybutyric acid: 407527 and 409338 and 391016
  Raw counts of 3-Hydroxybutyric acid: 935326 and 777510 and 811161
  Raw counts of 3-Phosphoglycerate: 27569.7 and 29653.8 and 33692.4
  Raw counts of 3-Phosphoserine: 0
  Raw counts of 6-Phosphogluconate: 2283.86 and 2700.65 and 2716.13
  Raw counts of Carbamoyl phosphate: 77497 and 91797.1 and 80487.7
  Raw counts of Citrulline: 767940 and 822514 and 761078
  Raw counts of Cytidine: 42547.3 and 33951.9 and 31568.3
  Raw counts of Hypoxanthine: 6602890 and 6349420 and 6667202
  Raw counts of Isoleucine: 8463643 and 7729570 and 8029520
  Raw counts of Lactate: 2.84E+08 and 2.40E+08 and 2.49E+08
  Raw counts of Leucine: 1.56E+07 and 1.48E+07 and 1.55E+07
  Raw counts of Methionine: 3519797 and 3454298 and 3337800
  Raw counts of N-acetyl-glutamine: 14303 and 11323.4 and 0
  Raw counts of Orotate: 62546.3 and 65785 and 58119.5
  Raw counts of Phenylalanine: 9403483 and 9101309 and 9197218
  Raw counts of Phosphoenolpyruvate: 23786.2 and 24455.1 and 27616
  Raw counts of Pyridoxine: 1078977 and 951150 and 1075404
  Raw counts of Pyruvate: 3.56E+07 and 3.45E+07 and 3.67E+07
  Raw counts of Ribitol: 1829543 and 1600997 and 2014101
  Raw counts of Sorbitol: 2.37E+07 and 2.26E+07 and 2.62E+07
  Raw counts of Taurine: 5285632 and 4263876 and 4897168
  Raw counts of Tryptophan: 2709598 and 2662217 and 2730749
  Raw counts of Tyrosine: 5411932 and 5220208 and 5418708
  Raw counts of UDP: 31905 and 38800.3 and 38337.9
  Raw counts of Uracil: 1743558 and 1602379 and 1692033
  Raw counts of Uridine: 1071683 and 996648 and 1101788
  Raw counts of Valine: 1.20E+07 and 1.17E+07 and 1.23E+07
  Raw counts of Xanthine: 6452708 and 5994216 and 6427826
Mouse T cells
  T cell proliferation block by B16F10-ALDH1A3 conditioned media (in words): proliferation block disappeared
M3
  inhibition at 10 µM: -13.4%

## CCc1ccccc1C(=O)Nc1cc2c(cc1F)NC(=O)CC2 [MBE1.5, 2-ethyl-N-(7-fluoro-2-oxo-3,4-dihydro-1H-quinolin-6-yl)benzamide]
ALDH1A3 mRNA
  feedback effect on ALDH1A3 expression (in words): no feedback effect
